# Target: human 11β-HSD1 (Homo sapiens, UniProt P28845)
# Experiment: Biological Test Example 1: inhibition of a microsomal preparation of 11β-HSD1 (SPA)
# Type: biochemical
# Conditions: microsomes from CHO cells overexpressing human 11β-HSD1; for inhibition at 0.1 µM: at 100 nM; for IC50: read-out: IC50 Range
# Sequence of human 11β-HSD1 (P28845 whole entry): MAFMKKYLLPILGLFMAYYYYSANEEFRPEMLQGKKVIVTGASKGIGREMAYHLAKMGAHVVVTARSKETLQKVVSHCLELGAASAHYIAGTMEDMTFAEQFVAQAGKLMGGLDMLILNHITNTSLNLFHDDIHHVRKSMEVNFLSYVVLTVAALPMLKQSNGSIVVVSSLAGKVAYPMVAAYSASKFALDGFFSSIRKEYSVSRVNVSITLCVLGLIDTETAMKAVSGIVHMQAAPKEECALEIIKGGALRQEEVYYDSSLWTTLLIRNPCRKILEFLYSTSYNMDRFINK
compound,measurement,value
"C[C@@H](c1ccc(Br)cc1)N1CC[C@](CCO)(c2ccccc2)CC1=O (single isomer, unassigned) [EXAMPLE 2 Isomer 1]",inhibition at 0.1 µM,101%
same,IC50,< 100 nM
"C[C@@H](c1ccc(Br)cc1)N1CC[C@@](CCO)(c2ccccc2)CC1=O (single isomer, unassigned) [EXAMPLE 2 Isomer 2]",inhibition at 0.1 µM,73.8%
same,IC50,< 100 nM
"C[C@@H](c1ccc(-c2ccc(F)cc2)cc1)N1CC[C@](CCO)(c2ccccc2)CC1=O (single isomer, unassigned) [EXAMPLE 3 Isomer 1]",inhibition at 0.1 µM,97.9%
same,IC50,< 100 nM
"C[C@@H](c1ccc(-c2ccc(F)cc2)cc1)N1CC[C@@](CCO)(c2ccccc2)CC1=O (single isomer, unassigned) [EXAMPLE 3 Isomer 2]",inhibition at 0.1 µM,61.3%
same,IC50,< 100 nM
"C[C@@H](c1ccc(Br)cc1)N1CC[C@](CCC(N)=O)(c2ccc(F)cc2)CC1=O (single isomer, unassigned) [EXAMPLE 4 Isomer 1]",inhibition at 0.1 µM,96.8%
same,IC50,< 100 nM
"C[C@@H](c1ccc(Br)cc1)N1CC[C@@](CCC(N)=O)(c2ccc(F)cc2)CC1=O (single isomer, unassigned) [EXAMPLE 4 Isomer 2]",inhibition at 0.1 µM,27.8%
same,IC50,> 100 nM
"C[C@@H](c1ccc(-c2ccc(=O)n(C)c2)cc1)N1CC[C@](CCCO)(c2ccc(F)cc2)CC1=O (single isomer, unassigned) [EXAMPLE 5 Isomer 1]",inhibition at 0.1 µM,94%
same,IC50,< 100 nM
"C[C@@H](c1ccc(-c2ccc(=O)n(C)c2)cc1)N1CC[C@@](CCCO)(c2ccc(F)cc2)CC1=O (single isomer, unassigned) [EXAMPLE 5 Isomer 2]",inhibition at 0.1 µM,10.7%
same,IC50,> 100 nM
"CC[C@@H](c1ccc(Br)cc1)N1CC[C@](CC(C)(C)O)(c2ccccc2)CC1=O (single isomer, unassigned) [EXAMPLE 6 Isomer 1]",inhibition at 0.1 µM,98.3%
same,IC50,< 100 nM
"CC[C@@H](c1ccc(Br)cc1)N1CC[C@@](CC(C)(C)O)(c2ccccc2)CC1=O (single isomer, unassigned) [EXAMPLE 6 Isomer 2]",inhibition at 0.1 µM,82.6%
same,IC50,< 100 nM
"C[C@@H](c1ccc(Br)cc1)N1CC[C@](CC(C)(C)O)(c2ccccc2)CC1=O [EXAMPLE 7, (R)-1-((S)-1-(4-bromophenyl)ethyl)-4-(2-hydroxy-2-methylpropyl)-4-phenylpiperidin-2-one]",inhibition at 0.1 µM,98%
same,IC50,< 100 nM
"C[C@@H](c1ccc(-c2ccn(C)c(=O)c2)cc1)N1CC[C@](CC(C)(C)O)(c2ccccc2)CC1=O [EXAMPLE 8, 4-(4-((S)-1-((R)-4-(2-hydroxy-2-methylpropyl)-2-oxo-4-phenylpiperidin-1-yl)ethyl)phenyl)-1-methylpyridin-2(1H)-one]",inhibition at 0.1 µM,93%
same,IC50,< 100 nM
"C[C@@H](c1ccc(-c2ccc(=O)n(C)c2)cc1)N1CC[C@](CC(C)(C)O)(c2ccccc2)CC1=O [EXAMPLE 9, 5-(4-((S)-1-((R)-4-(2-hydroxy-2-methylpropyl)-2-oxo-4-phenylpiperidin-1-yl)ethyl)phenyl)-1-methylpyridin-2(1H)-one]",inhibition at 0.1 µM,92.7%
same,IC50,< 100 nM
"C[C@@H](c1ccc(Br)cc1)N1CC[C@](CC(C)(C)C#N)(c2ccccc2)CC1=O [EXAMPLE 10, 3-((S)-1-((S)-1-(4-bromophenyl)ethyl)-2-oxo-4-phenylpiperidin-4-yl)-2,2-dimethylpropanenitrile]",inhibition at 0.1 µM,96%
same,IC50,< 100 nM
"C[C@@H](c1ccc(Br)cc1)N1CC[C@](CC(C)(C)C(N)=O)(c2ccccc2)CC1=O [EXAMPLE 11, 3-((S)-1-((S)-1-(4-bromophenyl)ethyl)-2-oxo-4-phenylpiperidin-4-yl)-2,2-dimethylpropanamide]",inhibition at 0.1 µM,95.5%
same,IC50,< 100 nM
"C[C@@H](c1ccc(-c2cc[nH]c(=O)c2)cc1)N1CC[C@](CC(C)(C)O)(c2ccccc2)CC1=O [EXAMPLE 12, 4-(4-((S)-1-((R)-4-(2-hydroxy-2-methylpropyl)-2-oxo-4-phenylpiperidin-1-yl)ethyl)phenyl)pyridin-2(1H)-one]",inhibition at 0.1 µM,95.9%
same,IC50,< 100 nM
"C[C@@H](c1ccc(-c2ccc(=O)[nH]c2)cc1)N1CC[C@](CC(C)(C)O)(c2ccccc2)CC1=O [EXAMPLE 13, 5-(4-((S)-1-((R)-4-(2-hydroxy-2-methylpropyl)-2-oxo-4-phenylpiperidin-1-yl)ethyl)phenyl)pyridin-2(1H)-one]",inhibition at 0.1 µM,94.3%
same,IC50,< 100 nM

# From patent US8680281B2, “Lactam inhibitors of 11-β-hydroxysteroid dehydrogenase 1” (Vitae Pharmaceuticals, Inc., priority 2008, dated 2014)
